In paper PMC12120630, “Nicotianin-I: A Tobacco Floral Nectar Peptide with Anticandidal Activity” (ACS Omega, 2025):
≈ marks a conversion by molar mass, not a printed value. Where “and” joins values, the source holds several entries; their conditions need not be identical. Equal entries are not always repeated. Residues, ends and D or L forms follow the SMILES beside them.

Columns and labels:
[1] = system: C. albicans, C. krusei, C. parapsilosis, and C. tropicalis; assay: Anticandidal activity, statements for all strains tested; format: cell-based, Candida spp.; details: peptide 200 to 1.56 μM, 24 h, 37 °C
Procedure: (§1) The anticandidal activity was performed against the following species: C. albicans (ATCC 10231), C. krusei (ATCC 22019), C. parapsilosis (ATCC 6258), and C. tropicalis (INCQS 40042). The cell concentration was standardized by OD600 nm to achieve a concentration of 1.5 × 10^3 CFU/mL. The assays were performed using 96-well microplates, mixing the cell suspensions (100 μL) with 100 μL of each peptide serially diluted (200 to 1.56 μM, final concentrations) in 0.15 M NaCl containing 5% DMSO (dimethyl sulfoxide), which was used as a control. The plates were incubated for 24 h at 37 °C under agitation (150 rpm), and the readings were done at 600 nm using a Microtiter Plate Reader. The results are shown as the percentage of growth, considering the OD600 nm of the control as 100%.

[2] = system: L929 (murine fibroblast) cells; details: L929, 200 μM
Procedure: Cell viability of peptide-treated fibroblast cells was tested by the MTT method. Shortly, L929 cells were trypsinized (trypsin–EDTA solution) and seeded into 96-well plates with DMEM (100 μL) at 1 × 10^5 cells/mL for 48 h, followed by the addition of the same volume of serially diluted nicotianin-I (200–1.56 μM) and negative control (0.15 M NaCl). The images were captured with the aid of an optical microscope coupled with phase contrast (AE200, Motic, Barcelona, CT, ES) under 200× magnification. Finally, 10 μL of 5 mg/mL MTT was added to each well, and the mixture was incubated at 37 °C for 3 h. Formazan was solubilized with DMSO (150 μL), and the OD570 nm was measured in a microplate reader.

C. albicans (ATCC 10231) = format: cell-based, Candida albicans; details: ATCC 10231, 24 h
Procedure: as §1

[3] = system: C. tropicalis (INCQS 40042); format: cell-based, Candida tropicalis; details: INCQS 40042, 24 h
Procedure: as §1

[4] = system: human erythrocyte (type O); details: 200 μM; 1% human erythrocytes, 1 h, 37 °C, OD414; relative to 0.1% Triton-X-100
Procedure: To assess a possible indicator of cytotoxicity, 150 μL of nicotianin-I, serially diluted with 0.15 M NaCl containing 5% DMSO, was incubated at 37 °C for 1 h with the same volume of 1% human erythrocyte (type O), which was obtained from the Hematology and Hemotherapy Center of Ceará, Brazil. Samples were centrifuged for 5 min at 2500g, and the supernatant was transferred to 96-well microplates. Released hemoglobin content was measured at OD414 nm. 0.1% Triton-X-100 and 0.15 M NaCl containing 5% DMSO were used as the positive and negative controls, respectively.

C. krusei (ATCC 22019) = format: cell-based, Candida krusei; details: ATCC 22019, 24 h
Procedure: as §1

[5] = system: Zebrafish embryos (AB wild-type strain); assay: Fish Embryo Acute Toxicity (FET) test, OECD 236 adapted for 96-well plate; format: in vivo
Procedure: Zebrafish embryos (AB wild-type strain) with approximately 1 h postfertilization (hpf) were provided by the Production Unit for Alternative Model Organisms (UniPOM), Federal University of Paraiba (UFPB), João Pessoa, Brazil. A day before the experiment, zebrafish adults (male/female ratio of 2:1) were transferred to a 7 L spawning tank with a bottom mesh and a quick-opening valve for embryo collection. Embryos were collected on the day of the experiment and cultured in the adapted embryonic medium E3 (5.0 mM NaCl, 0.17 mM KCl, 0.33 mM CaCl, and 0.33 mM MgSO4) containing 0.005% methylene blue. Only spawnings with a fertilization rate ≥90% were used. Viable embryos (normal cleavage pattern and without morphological changes) were selected using an inverted light microscope (Televal 31, Zeiss, Germany) at 50× magnification. The experiments were approved by the Ethics Committee on the Use of Animals at UFPB, with authorization documented by protocol no. 4460140920.
The Fish Embryo Acute Toxicity (FET test) test was conducted according to OECD’s guideline number 236 adapted for 96-well plate, as described by Muniz et al. Zebrafish embryos with up to 3 hpf were exposed to five concentrations (6.25, 12.5, 25, 50, and 100 μg/mL) of nicotianin-I, with the last concentration being adopted as a limit concentration. Twenty wells were filled with 0.3 mL of E3 medium and 1 embryo. In the same conditions, E3 medium and 0.15 M NaCl containing 5% DMSO were used as controls.
Embryos showing lethality end points (embryo coagulation, lack of somite formation, nondetachment of the tail bud, and lack of heartbeat) were considered dead. This number was used to determine the survival rate % [number of alive organisms/total number of organisms × 100] per tested concentration. The exposures were under static conditions (without renovation of the exposure solution). Observations were performed using a stereomicroscope at a 50× magnification. After 96 h, the surviving larvae were euthanized with eugenol and properly discarded.

[6] = system: C. parapsilosis (ATCC 6258); format: cell-based, Candida parapsilosis; details: ATCC 6258, 24 h
Procedure: as §1

C. parapsilosis = system: C. parapsilosis; parameters: method as in PMID 35456530; details: cited from earlier work
C. albicans = details: cited from earlier work
zebrafish embryos = details: cited from earlier work

WKCGSTPAPRKYCTCVAKMW [Pep4, ornamental tobacco floral nectar peptide […]]
in vitro antifungal activity (growth inhibition), in words [1]: negligible or no significant inhibition

HRFSYMCFVAQVLNKDYCSCCKF [Pep5, ornamental tobacco floral nectar peptide […]]
in vitro antifungal activity (growth inhibition), in words [1]: negligible or no significant inhibition

LHSGEGSTCYFFKTNPCCCGTWNCT [Pep3, ornamental tobacco floral nectar peptide […]]
in vitro antifungal activity (growth inhibition), in words [1]: negligible or no significant inhibition

CC(C)C[C@H](NC(=O)[C@H](CS)NC(=O)[C@H](Cc1ccc(O)cc1)NC(=O)CNC(=O)[C@H](Cc1c[nH]cn1)NC(=O)[C@H](CCCNC(=N)N)NC(=O)[C@@H](NC(=O)[C@H](CS)NC(=O)[C@H](CO)NC(=O)[C@H](Cc1ccc(O)cc1)NC(=O)[C@H](Cc1c[nH]cn1)NC(=O)[C@@H](N)CCCCN)[C@@H](C)O)C(=O)N[C@@H](C)C(=O)N[C@@H](CS)C(=O)N[C@@H](Cc1ccc(O)cc1)C(=O)N[C@@H](CCCCN)C(=O)N[C@@H](CCCNC(=N)N)C(=O)N[C@@H](Cc1c[nH]c2ccccc12)C(=O)N[C@@H](Cc1ccccc1)C(=O)O [nicotianin-I] (H-KHYSCTRHGYCLACYKRWF-OH)
cytotoxicity to fibroblasts, in words ([2]; MTT and phase contrast microscopy): no cytotoxicity | IC50 (C. albicans (ATCC 10231)): 80 ± 4.6 µM | MIC (C. albicans (ATCC 10231)): 120 ± 9.3 µM (≈ 291 µg/mL) | IC50 [3]: 24 ± 1.9 µM | MIC [3]: 86 ± 3.6 µM (≈ 208 µg/mL) | maximum percentage of hemolysis [4]: 28.1% | IC50 (C. krusei (ATCC 22019)): 57 ± 3.7 µM | MIC (C. krusei (ATCC 22019)): 133 ± 8.6 µM (≈ 322 µg/mL) | survival rate ([5]; 50 μg/mL (21 μM), 96 h exposure, static, 20 embryos per concentration): 90% | mortality rate ([5]; 100 μg/mL or 42 μM (highest concentration), as stated in the abstract): 40% | blood clotting ([5]; 6.25–100 μg/mL, 96 h): n.e. (n.e.: no effect or less than 20% of embryos affected) | body pigmentation ([5]; 6.25–100 μg/mL, 96 h): n.e. (n.e.: no effect or less than 20% of embryos affected) | eye malformation ([5]; 6.25–100 μg/mL, 96 h): n.e. ^b (n.e.: no effect or less than 20% of embryos affected) | granules around the embryo (LOAEL) ([5]; 6.25–100 μg/mL, 96 h): 100 µg/mL | hatching delay (LOAEL) ([5]; 6.25–100 μg/mL, 96 h): 100 µg/mL | mouth malformation ([5]; 6.25–100 μg/mL, 96 h): n.e. (n.e.: no effect or less than 20% of embryos affected) | otolith malformation ([5]; 6.25–100 μg/mL, 96 h): n.e. (n.e.: no effect or less than 20% of embryos affected) | pericardial edema ([5]; 6.25–100 μg/mL, 96 h): n.e | spine malformation ([5]; 6.25–100 μg/mL, 96 h): n.e. (n.e.: no effect or less than 20% of embryos affected) | undersize ([5]; 6.25–100 μg/mL, 96 h): n.e. (n.e.: no effect or less than 20% of embryos affected) | yolk sac edema ([5]; 6.25–100 μg/mL, 96 h): n.e. (n.e.: no effect or less than 20% of embryos affected) | lowest observed adverse effect level (LOAEL) ([5]; nonlethal effects: hatching delay, granules around the embryo): 100 µg/mL | LC50 (mortality) ([5]; zebrafish embryos, 96 h exposure): 131 µg/mL and 131.85 µg/mL | LC50 ([5]; zebrafish embryos, 96 h exposure, same value given in μM): 54 µM | IC50 [6]: 46 ± 2.2 µM | MIC [6]: 141 ± 7.1 µM (≈ 342 µg/mL)

EYCSAKSAKPGVHCRSCALVNMYK [Pep2, ornamental tobacco floral nectar peptide […]]
in vitro antifungal activity (growth inhibition), in words [1]: negligible or no significant inhibition

CC(C)[C@H](N)C(=O)N[C@@H](CS)C(=O)N1CCC[C@H]1C(=O)N[C@@H](CS)C(=O)N[C@@H](C)C(=O)N[C@@H](CS)C(=O)N[C@@H](CS)C(=O)N[C@@H](CO)C(=O)N[C@H](C(=O)N1CCC[C@H]1C(=O)N[C@@H](CCCNC(=N)N)C(=O)N[C@@H](CCCNC(=N)N)C(=O)N[C@H](C(=O)O)C(C)C)[C@@H](C)O [Pep1] (H-VCPCACCSTPRRV-OH; N-terminus and C-terminus assumed)
reduction of cellular viability (up to) ([2]; MTT, OD570): 80.95% | in vitro antifungal activity (growth inhibition), in words [1]: negligible or no significant inhibition

C[C@@H]1[C@H](O)[C@@H](C)/C=C/C=C/C=C/C=C/C=C/C=C/C=C/[C@H](O[C@@H]2O[C@H](C)[C@@H](O)[C@H](N)[C@@H]2O)C[C@@H]2O[C@](O)(C[C@@H](O)C[C@@H](O)[C@H](O)CC[C@@H](O)C[C@@H](O)CC(=O)O[C@H]1C)C[C@H](O)[C@H]2C(=O)O [Amphotericin B]
MIC (C. parapsilosis): 0.25 µg/mL (≈ 0.271 µM) | MIC (C. albicans): 0.25 µg/mL (≈ 0.271 µM)

C[C@@H]1[C@H](O)[C@@H](C)/C=C/C=C/CC/C=C/C=C/C=C/C=C/C(O[C@H]2O[C@H](C)[C@@H](O)[C@H](N)[C@@H]2O)CC2O[C@](O)(CC(O)C(O)CCC(O)CC(O)CC(O)CC(=O)O[C@H]1C)CC(O)C2C(=O)O (some centres unmarked) [nystatin]
MIC (C. parapsilosis): 1 µg/mL (≈ 1.08 µM) | LC50 (zebrafish embryos; zebrafish embryos at 120 h postfertilization): 6.2 µg/mL (≈ 6.69 µM) | exposure concentration causing cardiac abnormalities (pericardial edema, reduced heartbeat) (zebrafish embryos; zebrafish embryos, Nys 3 × MIC, AmB 3.2 × MIC): 3 µg/mL | MIC (C. albicans): 1 µg/mL (≈ 1.08 µM)
